Experimental findings from ChEMBL document CHEMBL5244236, “Antitumor activity and structure-activity relationship of heparanase inhibitors: Recent advances” (Eur J Med Chem, 2020) are described below.

Experiment [1] deals with T1, Heparanase (Homo sapiens, UniProt Q9Y251).
T1 sequence (Q9Y251 whole entry): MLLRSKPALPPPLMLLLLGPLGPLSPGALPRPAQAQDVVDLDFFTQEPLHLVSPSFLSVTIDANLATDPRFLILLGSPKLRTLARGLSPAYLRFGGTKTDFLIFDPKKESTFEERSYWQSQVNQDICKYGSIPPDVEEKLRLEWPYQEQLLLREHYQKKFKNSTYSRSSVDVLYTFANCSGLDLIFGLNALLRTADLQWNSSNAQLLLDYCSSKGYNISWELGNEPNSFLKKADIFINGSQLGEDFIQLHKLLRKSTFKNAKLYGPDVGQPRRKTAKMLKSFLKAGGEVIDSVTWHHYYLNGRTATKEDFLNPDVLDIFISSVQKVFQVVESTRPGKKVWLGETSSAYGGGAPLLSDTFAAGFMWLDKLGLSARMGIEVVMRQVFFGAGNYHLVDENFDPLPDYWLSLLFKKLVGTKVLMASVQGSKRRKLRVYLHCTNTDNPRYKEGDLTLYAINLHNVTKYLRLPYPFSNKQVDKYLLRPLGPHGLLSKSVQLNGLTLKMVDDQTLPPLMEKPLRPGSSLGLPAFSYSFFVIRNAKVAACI
The experiment in a line: Inhibition of HPSE (unknown origin).

Experiment [2] can be described thus: Antiangiogenic activity in bFGF-stimulated human microvascular endothelial cells assessed as inhibition of cell growth incubated for 72 hrs. It is filed as functional, cell-based, Cardiac microvascular endothelial cell.
The target of experiment [3] is T1, Heparanase. The experiment in a line: Inhibition of human HPSE assessed as residual amount of heparin using porcine heparin as substrate preincubated for 5 mins followed by substrate addition and measured after 15 mins by spectrophotometric analysis.
In the next experiment the test system is B16-F10. The experiment in a line: Inhibition of cell migration in mouse B16-F10 cells by wound healing assay.
In experiment [4] the test system is HT-1080. The experiment in a line: Anti-invasive activity against human HT-1080 cells assessed as inhibition of cell invasive.
The test system of experiment [5] is HT-1080. The experiment in a line: Antimigratory activity against human HT-1080 cells assessed as inhibition of cell migration.
Experiment [6] is described as follows: Antimigratory activity against mouse Lewis lung carcinoma cell line assessed as inhibition of cell migration incubated for 24 hrs by Wound healing assay. It counts as functional, cell-based.
For experiment [7], the system named is HepG2. The experiment in a line: Antimigratory activity against human HepG2 assessed as inhibition of cell migration incubated for 48 hrs by Wound healing assay. It counts as functional, cell-based. The conditions noted are these: HepG2, 48 h.
The subject of experiment [8] is HepG2. The experiment in a line: Antiproliferative activity against human HepG2 assessed as reduction in cell proliferation by MTT assay. It counts as functional, cell-based. A general note: Tetrazolium assays rely on reduction of a dye to a coloured formazan, in cell work by metabolically active cells.
Experiment [9] is described as follows: Antiproliferative activity against mouse Lewis lung carcinoma cell line assessed as reduction in cell proliferation by MTT assay. It is filed as functional, cell-based.
Experiment [10] in a line: Anti-invasive activity against mouse Lewis lung carcinoma cell line assessed as inhibition of cell invasion incubated for 24 hrs by transwell assay. It counts as functional, cell-based.
In experiment [11] the test system is HepG2. The experiment in a line: Anti-invasive activity against human HepG2 assessed as inhibition of cell invasion incubated for 48 hrs by transwell assay. It counts as functional, cell-based. The conditions noted are these: HepG2, 48 h.
A short description of experiment [12]: Antiangiogenic activity in VEGF-stimulated human endothelial cells assessed as inhibition of cell growth and measured after 11 days by immunohistochemical staining based analysis. The conditions noted are these: 264 h.

Molecules are shown by their SMILES.

The term IC50 denotes the concentration needed to halve the response being measured.

Regarding `CCCCCCCCCCCCCCCC(=O)C1=C(OC(C)C)[C@@H](CO)OC1=O`, the IC50 against Heparanase [1] is above 100 µM.

In the case of `Cc1ccc(C(=O)Nc2ccc(S(=O)(=O)O)c3cc(S(=O)(=O)O)cc(S(=O)(=O)O)c23)cc1NC(=O)c1cccc(NC(=O)Nc2cccc(C(=O)Nc3cc(C(=O)Nc4ccc(S(=O)(=O)O)c5cc(S(=O)(=O)O)cc(S(=O)(=O)O)c45)ccc3C)c2)c1` [SURAMIN], the IC50 in [2] is 0.538 µM.

Turning to `CCCCCCCCCCCCCCCc1cc(O[C@@H]2O[C@H](C(=O)O)[C@@H](O)[C@H](O)[C@H]2O)cc(O)c1C(=O)Oc1cc(C)c(C(=O)O)c(O)c1`, the IC50 on Heparanase [3] was 3 µM; with B16-F10 it was 15 µM.

Turning to `CCCCCCCCCCCCCCCC(=O)C1=C(OCc2ccccc2)[C@@H](CO)OC1=O`, the IC50 in the experiment with HT-1080 [4] and in the experiment with HT-1080 [5] was 3 µM in each case.

For the compound `Oc1c(I)cc(I)cc1-c1nn2c(-c3ccccc3)nnc2s1`, the IC50 worked out at 5 µM in [6]; 5 µM in the experiment with HepG2 [7]; 8.3 µM in the experiment on HepG2 [8]; 11.9 µM in experiment [9]; 5 µM in [10]; 5 µM in the experiment with HepG2 [11].

For `O=C(O)c1ccc2c(c1)C(=O)N(c1cccc(-c3nc4ccccc4o3)c1)C2=O`, the IC50 in experiment [12] turned out to be 40 µM.

`CCCCCCCCCCCCCCCc1cc(O[C@@H]2O[C@H](C(=O)OC)[C@@H](O)[C@H](O)[C@H]2O)cc(O)c1C(=O)Oc1cc(C)c(C(=O)O)c(O)c1` yielded an IC50 with B16-F10 of 30 µM.

The compound `CCCCCCCCCCCCCCCC(=O)C1=C(OC)[C@@H](CO)OC1=O` gave an IC50 against Heparanase [1] above 100 µM.
